Article PMC11054573, “Identification of Ureidocoumarin-Based Selective Discoidin Domain Receptor 1 (DDR1) Inhibitors via Drug Repurposing Approach, Biological Evaluation, and In Silico Studies” (Pharmaceuticals, 2024)
pIC50: −log10 of the molar value. Read-outs that look alike come from different tables or passages of the source.

Legend:
ABL1 kinase = molecular target: T1, ABL1 kinase (Homo sapiens, UniProt P00519); assay: Biochemical kinase profile (23 oncogenic kinases), ABL1; settings: 10 μM compound, 10 μM ATP, single-dose duplicate; read-out: % inhibition ABL1 kinase (and rest of tested kinases)
T1 construct: purchased Reaction Biology Corporation (RBC)
Procedure: (§1) These tested kinases were selected based on common off targets for several DDR1/2 kinase inhibitors.
(§2) Reaction Biology Corporation (RBC) Kinase HotSpot^SM service was adopted for biochemical evaluation of the target compounds against DDR1 and DDR2 kinases along with the kinase profile of compound 3q according to the reported assay protocol.
(§3) Figure 5 Inhibition percentages exerted by compound 3q (10 µM) over a panel of 23 oncogenic kinases. Compound 3q was tested in a single-dose duplicate mode, and the reactions were carried out at 10 μM ATP.

[1] = tested on: HCT116 colon cancer cells; assay: NCI SRB antiproliferative assay, HCT116; type: cell-based; settings: Homo sapiens, HCT-116; for inhibition at 10 µM: read-out: % Growth inhibition at 10 µM HCT116
Procedure: (§4) Six members, 3a, 3g–j, and 3q, out of the investigated compounds were further evaluated for their antiproliferative effects against human cancer cell lines, including leukemia (K562), colon cancer (HCT116), non-small cell lung (NSCL) cancer (A549, NCI-H23 and NCI-H460), and breast cancer (MCF-7 and T47D) cells. The tested cell lines’ choice depended on their elevated DDR1 expression levels. The cell lines were all treated with a 10 µM concentration of the tested compounds, and the results were expressed as the percentage of growth inhibition (%GI) (Table 4).
(§5) Inhibition of the tumor relevant carbonic anhydrases IX and XII may be one of these additional mechanisms.
(§6) The evaluation of the antiproliferative activities of compounds 3a, 3g–j, and 3q over a panel of DDR1-dependent cell lines was conducted employing the sensitive Sulforhodamine B (SRB) assay at the National Cancer Institute (NCI), Bethesda, Maryland, USA, following the standard protocol.

TrkA kinase = molecular target: T2, TrkA kinase (Homo sapiens, UniProt P04629); assay: Biochemical kinase profile (23 oncogenic kinases), TrkA; settings: 10 μM compound, 10 μM ATP, single-dose duplicate
T2 construct: purchased Reaction Biology Corporation (RBC)
Procedure: as §1, §2, §3

[2] = tested on: DDR1-dependent cancer cell lines; assay: NCI SRB antiproliferative assay, whole panel of DDR1-dependent cell lines; type: cell-based, human; settings: 10 µM, span over the seven cell lines
Procedure: as §4, §5, §6

[3] = tested on: NCI-H23 non-small cell lung cancer cells; assay: NCI SRB antiproliferative assay, NCI-H23; type: cell-based; settings: Homo sapiens; for inhibition at 10 µM: read-out: % Growth inhibition at 10 µM NCI-H23
Procedure: as §4, §5, §6

c-Kit kinase = molecular target: T3, c-Kit kinase (Homo sapiens, UniProt P10721); assay: Biochemical kinase profile (23 oncogenic kinases), c-Kit; settings: 10 μM compound, 10 μM ATP, single-dose duplicate
T3 construct: purchased Reaction Biology Corporation (RBC)
Procedure: as §1, §2, §3

K562 leukemia cells = assay: NCI SRB antiproliferative assay, K562; type: cell-based; settings: Homo sapiens; for inhibition at 10 µM: read-out: % Growth inhibition at 10 µM K562
Procedure: as §4, §5, §6

[4] = tested on: A549 non-small cell lung cancer cells; assay: NCI SRB antiproliferative assay, A549; type: cell-based; settings: Homo sapiens; for inhibition at 10 µM: read-out: % Growth inhibition at 10 µM A549
Procedure: as §4, §5, §6

DDR1 [5] = molecular target: T4, DDR1 (Homo sapiens, UniProt Q08345); assay: RBC radiometric HotSpot kinase assay, DDR1; settings: for SI: Selectivity index (IC50 DDR2/IC50 DDR1): DDR1 over DDR2; for inhibition at 10 µM: read-out: % Inhibition at 10 μM (SEM) DDR1
Procedure: (§7) All compounds in this study were tested against DDR1 and DDR2 at a 10 µM dose at Reaction Biology Corporation (RBC, Malvern, PA, USA) employing the radiometric HotSpot Kinase assay protocol (Table 1).

T47D breast cancer cells [6] = assay: NCI SRB antiproliferative assay, T47D; type: cell-based; settings: Homo sapiens; for inhibition at 10 µM: read-out: % Growth inhibition at 10 µM T47D
Procedure: as §4, §5, §6

[7] = tested on: MCF-7 breast cancer cells; assay: NCI SRB antiproliferative assay, MCF-7; type: cell-based; settings: Homo sapiens, MCF7; for inhibition at 10 µM: read-out: % Growth inhibition at 10 µM MCF-7
Procedure: as §4, §5, §6

DDR2 = molecular target: T5, DDR2 (Homo sapiens, UniProt Q16832); assay: RBC radiometric HotSpot kinase assay, DDR2; settings: for inhibition at 10 µM: read-out: % Inhibition at 10 μM (SEM) DDR2
T5 sequence (Q16832 22-855): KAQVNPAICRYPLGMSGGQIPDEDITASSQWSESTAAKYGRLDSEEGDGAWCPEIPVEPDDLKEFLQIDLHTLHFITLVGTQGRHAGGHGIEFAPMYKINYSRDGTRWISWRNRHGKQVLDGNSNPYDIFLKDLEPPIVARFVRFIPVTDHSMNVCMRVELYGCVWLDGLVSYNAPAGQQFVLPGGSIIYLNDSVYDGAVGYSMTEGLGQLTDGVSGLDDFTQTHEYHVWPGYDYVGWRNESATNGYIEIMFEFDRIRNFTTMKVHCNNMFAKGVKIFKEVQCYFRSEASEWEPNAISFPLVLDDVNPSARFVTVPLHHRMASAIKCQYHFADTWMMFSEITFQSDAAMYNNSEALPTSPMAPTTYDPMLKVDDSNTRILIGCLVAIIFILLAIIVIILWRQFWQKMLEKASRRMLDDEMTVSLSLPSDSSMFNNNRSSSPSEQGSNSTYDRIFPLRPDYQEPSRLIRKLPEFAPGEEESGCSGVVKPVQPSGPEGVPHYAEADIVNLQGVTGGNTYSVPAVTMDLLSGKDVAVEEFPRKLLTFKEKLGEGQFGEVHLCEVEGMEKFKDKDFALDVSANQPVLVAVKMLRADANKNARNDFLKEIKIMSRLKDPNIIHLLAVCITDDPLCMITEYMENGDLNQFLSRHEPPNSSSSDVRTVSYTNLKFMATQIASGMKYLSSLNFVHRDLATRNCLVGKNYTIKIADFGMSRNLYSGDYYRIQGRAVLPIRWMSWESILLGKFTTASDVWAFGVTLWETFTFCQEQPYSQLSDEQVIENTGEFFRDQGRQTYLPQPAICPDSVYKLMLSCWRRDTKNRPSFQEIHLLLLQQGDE
Procedure: as §7

[8] = tested on: NCI-H460 non-small cell lung cancer cells; assay: NCI SRB antiproliferative assay, NCI-H460; type: cell-based; settings: Homo sapiens; for inhibition at 10 µM: read-out: % Growth inhibition at 10 µM NCI-H460
Procedure: as §4, §5, §6

[9] = tested on: A549 non-small cell lung cancer cells; settings: reported data ref 20; cited from earlier work
T47D breast cancer cells [10] = settings: reported data ref 20; cited from earlier work
[11] = tested on: HCT116 colon cancer cells; settings: reported data ref 20; cited from earlier work
DDR1 [12] = molecular target: T4, DDR1; set-up: purchased Reaction Biology Corporation (RBC, Malvern, PA, USA); settings: cited from earlier work

T4 sequence (Q08345 19-913): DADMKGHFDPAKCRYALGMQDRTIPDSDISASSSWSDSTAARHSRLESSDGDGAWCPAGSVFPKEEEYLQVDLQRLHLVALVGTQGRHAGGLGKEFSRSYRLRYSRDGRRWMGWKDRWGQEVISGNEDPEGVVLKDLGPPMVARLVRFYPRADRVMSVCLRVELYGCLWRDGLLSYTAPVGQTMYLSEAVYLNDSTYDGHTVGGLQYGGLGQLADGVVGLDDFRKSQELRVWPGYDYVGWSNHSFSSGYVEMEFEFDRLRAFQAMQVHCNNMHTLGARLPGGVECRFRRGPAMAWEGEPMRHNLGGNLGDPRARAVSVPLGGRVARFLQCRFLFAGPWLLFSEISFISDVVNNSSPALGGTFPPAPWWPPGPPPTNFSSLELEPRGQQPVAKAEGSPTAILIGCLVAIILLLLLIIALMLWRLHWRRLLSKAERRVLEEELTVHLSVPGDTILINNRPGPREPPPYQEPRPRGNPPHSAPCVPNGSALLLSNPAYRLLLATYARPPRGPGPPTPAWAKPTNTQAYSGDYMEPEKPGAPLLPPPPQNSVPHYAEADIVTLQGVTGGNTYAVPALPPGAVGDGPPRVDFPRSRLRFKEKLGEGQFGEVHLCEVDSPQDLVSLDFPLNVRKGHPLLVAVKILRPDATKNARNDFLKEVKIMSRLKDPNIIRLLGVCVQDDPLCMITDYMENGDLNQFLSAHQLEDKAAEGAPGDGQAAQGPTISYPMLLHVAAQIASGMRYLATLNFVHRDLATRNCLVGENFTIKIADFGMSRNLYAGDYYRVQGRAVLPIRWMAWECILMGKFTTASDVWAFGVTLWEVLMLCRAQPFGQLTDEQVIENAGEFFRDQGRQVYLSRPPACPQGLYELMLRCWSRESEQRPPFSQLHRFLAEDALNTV
T3 sequence (P10721 26-976): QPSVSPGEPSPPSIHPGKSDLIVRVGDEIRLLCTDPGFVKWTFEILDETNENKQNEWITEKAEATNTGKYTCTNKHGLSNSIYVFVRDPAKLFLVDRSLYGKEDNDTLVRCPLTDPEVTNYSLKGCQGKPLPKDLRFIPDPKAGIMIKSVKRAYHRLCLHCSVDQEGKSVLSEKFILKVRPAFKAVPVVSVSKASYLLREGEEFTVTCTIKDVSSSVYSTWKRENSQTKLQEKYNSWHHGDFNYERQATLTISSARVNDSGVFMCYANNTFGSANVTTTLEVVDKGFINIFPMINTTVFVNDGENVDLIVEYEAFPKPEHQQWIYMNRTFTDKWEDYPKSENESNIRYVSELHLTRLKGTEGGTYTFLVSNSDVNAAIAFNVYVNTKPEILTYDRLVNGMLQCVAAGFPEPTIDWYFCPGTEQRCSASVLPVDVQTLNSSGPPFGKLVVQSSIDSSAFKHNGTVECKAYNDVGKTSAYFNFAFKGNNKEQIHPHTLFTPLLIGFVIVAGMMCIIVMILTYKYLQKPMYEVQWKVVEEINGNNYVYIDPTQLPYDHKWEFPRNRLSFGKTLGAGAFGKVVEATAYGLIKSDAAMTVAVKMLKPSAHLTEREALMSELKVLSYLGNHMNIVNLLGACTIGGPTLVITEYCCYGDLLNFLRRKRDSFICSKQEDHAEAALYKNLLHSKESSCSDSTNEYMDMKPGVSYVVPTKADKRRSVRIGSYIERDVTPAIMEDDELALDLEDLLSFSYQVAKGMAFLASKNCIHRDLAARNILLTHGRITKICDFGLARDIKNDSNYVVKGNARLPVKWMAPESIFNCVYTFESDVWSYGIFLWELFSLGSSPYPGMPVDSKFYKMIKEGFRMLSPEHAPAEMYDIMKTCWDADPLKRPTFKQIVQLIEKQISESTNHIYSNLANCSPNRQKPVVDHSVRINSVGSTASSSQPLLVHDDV
T1 sequence (P00519 whole entry): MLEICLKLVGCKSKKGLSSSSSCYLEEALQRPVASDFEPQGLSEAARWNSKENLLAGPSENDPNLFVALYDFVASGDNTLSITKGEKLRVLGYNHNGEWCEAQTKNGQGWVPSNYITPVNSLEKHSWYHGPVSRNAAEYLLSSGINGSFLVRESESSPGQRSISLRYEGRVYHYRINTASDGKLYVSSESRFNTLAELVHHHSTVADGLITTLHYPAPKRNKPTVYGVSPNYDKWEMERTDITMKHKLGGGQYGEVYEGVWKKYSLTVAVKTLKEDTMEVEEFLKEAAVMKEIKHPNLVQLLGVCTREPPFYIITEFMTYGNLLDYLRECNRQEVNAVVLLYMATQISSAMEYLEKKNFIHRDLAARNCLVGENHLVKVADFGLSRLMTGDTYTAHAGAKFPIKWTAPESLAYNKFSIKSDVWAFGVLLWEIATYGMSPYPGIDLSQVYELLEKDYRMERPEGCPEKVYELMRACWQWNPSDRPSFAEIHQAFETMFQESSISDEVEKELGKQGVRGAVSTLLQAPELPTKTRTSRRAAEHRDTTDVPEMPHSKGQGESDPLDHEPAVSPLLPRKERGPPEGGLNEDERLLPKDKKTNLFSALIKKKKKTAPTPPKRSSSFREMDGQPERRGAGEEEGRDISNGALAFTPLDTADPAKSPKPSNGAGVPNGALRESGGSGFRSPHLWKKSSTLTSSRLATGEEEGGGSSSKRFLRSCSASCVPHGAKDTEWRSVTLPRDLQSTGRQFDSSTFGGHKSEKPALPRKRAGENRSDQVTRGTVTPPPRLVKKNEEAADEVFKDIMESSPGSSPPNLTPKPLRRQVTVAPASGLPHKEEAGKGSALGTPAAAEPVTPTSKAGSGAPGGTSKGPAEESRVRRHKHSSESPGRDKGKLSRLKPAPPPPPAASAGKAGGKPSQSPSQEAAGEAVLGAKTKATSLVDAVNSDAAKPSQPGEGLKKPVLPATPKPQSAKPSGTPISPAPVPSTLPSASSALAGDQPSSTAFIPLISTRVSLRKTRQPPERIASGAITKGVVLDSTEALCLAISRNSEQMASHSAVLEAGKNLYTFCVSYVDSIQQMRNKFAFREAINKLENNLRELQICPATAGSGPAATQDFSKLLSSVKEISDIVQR
T2 sequence (P04629 33-796): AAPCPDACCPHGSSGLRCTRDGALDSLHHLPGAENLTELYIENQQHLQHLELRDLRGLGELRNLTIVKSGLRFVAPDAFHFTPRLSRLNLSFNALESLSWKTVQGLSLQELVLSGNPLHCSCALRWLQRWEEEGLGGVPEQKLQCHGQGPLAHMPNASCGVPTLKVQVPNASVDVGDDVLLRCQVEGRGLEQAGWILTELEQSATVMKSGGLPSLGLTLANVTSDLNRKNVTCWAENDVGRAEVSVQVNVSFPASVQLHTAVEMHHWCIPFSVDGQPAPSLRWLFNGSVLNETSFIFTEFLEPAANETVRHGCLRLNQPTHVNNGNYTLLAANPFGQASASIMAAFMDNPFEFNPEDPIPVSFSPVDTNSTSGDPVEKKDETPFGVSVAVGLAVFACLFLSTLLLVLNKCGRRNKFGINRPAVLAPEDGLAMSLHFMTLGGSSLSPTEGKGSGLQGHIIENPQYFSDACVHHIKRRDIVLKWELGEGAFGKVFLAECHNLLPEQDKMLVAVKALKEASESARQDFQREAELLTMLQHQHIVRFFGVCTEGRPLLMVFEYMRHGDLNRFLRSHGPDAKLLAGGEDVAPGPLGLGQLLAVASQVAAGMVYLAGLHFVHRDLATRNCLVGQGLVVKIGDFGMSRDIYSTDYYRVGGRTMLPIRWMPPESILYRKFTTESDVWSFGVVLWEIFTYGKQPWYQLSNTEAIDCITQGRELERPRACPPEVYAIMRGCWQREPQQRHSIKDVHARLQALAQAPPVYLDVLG

Structure (SMILES) | inhibition at 10 µM [1] | inhibition at 10 µM [3] | inhibition at 10 µM (K562 leukemia cells) | inhibition at 10 µM [4] | pIC50 (DDR1 [5]) | SI: Selectivity index (IC50 DDR2/IC50 DDR1) (DDR1 [5]) | inhibition at 10 µM (DDR1 [5]) | inhibition at 10 µM (T47D breast cancer cells [6]) | inhibition at 10 µM [7] | pIC50 (DDR2) | inhibition at 10 µM (DDR2) | inhibition at 10 µM [8] | other results
O=C(Nc1cccc(OC(F)(F)F)c1)Nc1ccc2oc(=O)ccc2c1 [Compound 3q, 1-(2-Oxo-2H-chromen-6-yl)-3-(3-(trifluoromethoxy)phenyl)urea] | 66.3% | 56.6% | 67.1% | 45.6% | 6.72 | 26.6 | 87.4% | 69.4% | 57% | 5.29 | 70.1% | 69.9% | inhibition at 10 µM (ABL1 kinase): < 25%; %EI TrkA kinase (TrkA kinase): 46.95%; %GI over all tested cell lines [2]: 45.65–69.93%; %EI c-Kit kinase (c-Kit kinase): 75.59%
O=C(Nc1ccc(Cl)c(C(F)(F)F)c1)Nc1ccc2oc(=O)ccc2c1 [Compound 3g] | 84.3% | 95.2% | 80.8% | 60.1% | 5.54 | >3.4 | 49% | 91.3% | 88.1% | < 5.00 | 39.3% | 81.9% | 
O=C(Nc1ccc(C(F)(F)F)cc1)Nc1ccc2oc(=O)ccc2c1 [Compound 3b] |  |  |  |  |  |  | 24.5% |  |  |  | 11.7% |  | 
Cc1cc(Cl)ccc1NC(=O)Nc1ccc2oc(=O)ccc2c1 [Compound 3n] |  |  |  |  |  |  | 10.7% |  |  |  | 8.02% |  | 
CCN1CCN(Cc2ccc(C(=O)Nc3ccc(C)c(Oc4ccc5c(c4)CC(=O)N5)c3)cc2C(F)(F)F)CC1 [DDR1-IN-1] |  |  |  |  |  |  |  |  |  | 7.22 |  |  | GI50 [9]: > 10000 nM; GI50 (T47D breast cancer cells [10]): > 10000 nM; GI50 [11]: 8700 nM
O=C(Nc1cccc(Cl)c1)Nc1cc2ncncc2cc1OCc1cccc(F)c1 [KST9046] |  |  |  |  |  |  |  |  |  |  |  |  | pIC50 (DDR1 [12]): 5.36
O=C(Nc1ccc2oc(=O)ccc2c1)c1cc(F)cc(F)c1 [Compound 4c] |  |  |  |  |  |  | 22.4% |  |  |  | 17% |  | 
O=C(Nc1ccc(F)c(Cl)c1)Nc1ccc2oc(=O)ccc2c1 [Compound 3h] | 14.1% | 14.3% | 32.2% | 15.1% | 5.78 | >6.0 | 57.2% | 24.6% | 25.4% | < 5.00 | 27.5% | 20.6% | %GI over all tested cell lines [2]: < 35%
CCCCOc1ccc(NC(=O)Nc2ccc3oc(=O)ccc3c2)cc1 [Compound 3f] |  |  |  |  |  |  | 10.6% |  |  |  | 5.52% |  | 
O=C(Nc1ccc2oc(=O)ccc2c1)c1cc(C(F)(F)F)cc(C(F)(F)F)c1 [Compound 4b] |  |  |  |  |  |  | 12.6% |  |  |  | 6.06% |  | 
O=C(Nc1ccc(Br)cc1)Nc1ccc2oc(=O)ccc2c1 [Compound 3d] |  |  |  |  |  |  | 23.1% |  |  |  | 7.53% |  | 
O=C(Nc1cc(C(F)(F)F)cc(C(F)(F)F)c1)Nc1ccc2oc(=O)ccc2c1 [Compound 3i] | 97.9% | 100% | 86.3% | 84.8% | 5.82 | 12.4 | 77.1% | 95.2% | 96.2% | 4.72 | 67.3% | 93.6% | GI50 ([1]; five-dose testing): 732 nM; GI50 ([3]; five-dose testing): 940 nM; GI50 (K562 leukemia cells; five-dose testing): 550 nM; GI50 ([4]; five-dose testing): 1590 nM; GI50 (T47D breast cancer cells [6]; five-dose testing): 1340 nM; GI50 ([7]; five-dose testing): 1940 nM; GI50 ([8]; five-dose testing): 690 nM
